Values joined by “and” are separate entries in the source; they are usually repeats but may differ in a detail not shown here. Equal values may be shown once.

The test system of the assay is TRPV ion channels. Nature of the assay: TRPV ion channel activity: 2-APB-induced intracellular calcium change in f11 nociceptive sensory cells (Fluo-4-AM). The conditions noted are these: f11 cell lines pre-treated with the compound for 24 hours, then 2-APB. Type of assay: cell-based, white rats. The protocol: To investigate the activity of the compound of Formula 1 isolated in Example 1, pain relief effects were evaluated. The pain relief was confirmed by identifying intracellular calcium levels and signaling pathways.
After f11 nociceptive sensory cell lines in white rats incubated with the compound of Formula 1 to 50% confluence for 24 hours were pretreated, TRPV ion channel activities were measured. The f11 cell lines were treated with 2-APB (2-aminoethoxydiphenyl borate) as a pre-activator for TRPV ion channels, and intracellular calcium changes, which are triggered in response to the 2-APB treatment, were evaluated using a Fluo-4-AM fluorescent dye on a real time basis.
(A change in cytosolic calcium serves as a functional read-out for many receptors and channels.)

As for `CC(C)c1ccc2c(c1)C=C[C@H]1[C@](C)(C(=O)O)CCC[C@]21C` [Formula 1, abieta-6,8,11,13-tetraaen-18-oic acid], for the setting “Fluo-4-AM fluorescent dye, real time”, the “increase in the intracellular calcium level induced by 2-APB” value is reported as “strongly inhibited”. Further, under “Fluo-4-AM, compared with untreated control group”, the “intracellular calcium level after 2-APB treatment (tabulated data of FIG. 8, individual values)” value is 1.1293 and 1.1714 and 1.1656 and 1.434 and 1.8663 and 1.3893 and 1.1031 and 1.2503 and 1.4131 and 1.3008 and 1.2251 and 1.1536 and 1.125 and 1.1572.

The record behind these values is US20190125704A1, “PAIN RELIEF COMPOSITION” (priority 2016, published 2019).
